Assay results: the NIST ThermoML archive (doi:10.1016/j.fluid.2015.03.021)
± gives the expanded uncertainty stated by the source.

Test: excess molar enthalpy (molar enthalpy of mixing); xn = mol fraction of the nth substance listed
Settings: 101 kPa, Liquid, Calvet calorimetry

## CN1CCNCC1 [N-methylpiperazine] + O
303.15 K, x1 = 0.0495
  excess molar enthalpy: -1.99 ± 0.081 kJ/mol
303.15 K, x1 = 0.0997
  excess molar enthalpy: -3.49 ± 0.14 kJ/mol
303.15 K, x1 = 0.2004
  excess molar enthalpy: -4.95 ± 0.2 kJ/mol
303.15 K, x1 = 0.3006
  excess molar enthalpy: -5.37 ± 0.22 kJ/mol
303.15 K, x1 = 0.3993
  excess molar enthalpy: -4.95 ± 0.2 kJ/mol
303.15 K, x1 = 0.6
  excess molar enthalpy: -3.52 ± 0.14 kJ/mol
303.15 K, x1 = 0.7973
  excess molar enthalpy: -1.82 ± 0.074 kJ/mol
323.15 K, x1 = 0.3991
  excess molar enthalpy: -4.7 ± 0.19 kJ/mol
323.15 K, x1 = 0.4012
  excess molar enthalpy: -4.63 ± 0.19 kJ/mol
323.15 K, x1 = 0.4193
  excess molar enthalpy: -4.57 ± 0.19 kJ/mol
323.15 K, x1 = 0.4994
  excess molar enthalpy: -4.11 ± 0.17 kJ/mol
323.15 K, x1 = 0.5981
  excess molar enthalpy: -3.44 ± 0.14 kJ/mol
323.15 K, x1 = 0.7019
  excess molar enthalpy: -2.58 ± 0.11 kJ/mol
323.15 K, x1 = 0.8001
  excess molar enthalpy: -1.76 ± 0.072 kJ/mol
323.15 K, x1 = 0.8964
  excess molar enthalpy: -0.944 ± 0.049 kJ/mol

## OCCNCCO [diethanolamine] + O
298.15 K, x1 = 0.1002
  excess molar enthalpy: -1.12 ± 0.046 kJ/mol
298.15 K, x1 = 0.2057
  excess molar enthalpy: -1.74 ± 0.071 kJ/mol
298.15 K, x1 = 0.2992
  excess molar enthalpy: -2.03 ± 0.082 kJ/mol
298.15 K, x1 = 0.3535
  excess molar enthalpy: -2.05 ± 0.083 kJ/mol
298.15 K, x1 = 0.403
  excess molar enthalpy: -2.04 ± 0.083 kJ/mol
298.15 K, x1 = 0.5035
  excess molar enthalpy: -1.88 ± 0.076 kJ/mol
298.15 K, x1 = 0.6967
  excess molar enthalpy: -1.27 ± 0.052 kJ/mol
298.15 K, x1 = 0.8826
  excess molar enthalpy: -0.5 ± 0.02 kJ/mol
